Experimental data taken from US12151999B2, “Small molecule compounds having naphthylamine structure and application thereof” (Hangzhou PhecdaMed Co., Ltd., priority 2021, dated 2024).

What follows are compounds tested on HEK293Tmtkeima cells (assay: Functional test of mitophagy inducer (mtKeima imaging, with or without CCCP-induced mitochondrial damage)). Settings: HEK293Tmtkeima cells, 5 uM or 10 uM CCCP to induce mitochondrial damage; number of cells in which damaged mitophagy occurs/number of all cells.
Type: cell-based, Human
Method: Group 1: Human embryonic kidney transformed cells HEK293Tmtkeima cells were treated with 0 μM, 1.25 μM, 2.5 μM, 5 μM and 10 μM CCCP respectively, and seeded in a 96-well black ELISA PLATE at 1.5*10^5 cells/ml, 100 μL per well. Compound I-2 was added after 25 hours, and 3 replicates were set. At 37° C., under 5% CO2 incubation conditions, photographs were taken every few hours with biotek cytation 5 for a total of 20 hours, with the bright field as the focusing channel, and 9 images were taken per hole, and the images were processed using the instrument software.
Group 2: Human embryonic kidney transformed cells HEK293Tmtkeima cells were seeded in a 96-well black ELISA PLATE at […], 100 μL per well; compounds I-1˜I-44 and UMI-77 were added after 25 hours, set up 3 replicates; under 37° C., 5% CO2 culture conditions, use biotek every few hours Cytation 5 was used to take photos, a total of 20 hours of shooting. In another group of cells under the same conditions, human embryonic kidney-transformed cells HEK293Tmtkeima cells were seeded in a 96-well black enzyme plate at 1.5*10^5 cells/ml, 100 μl per well; after 24 hours, 5 uM or 10 uM CCCP (Carbonyl cyanide) was first added 3-chlorophenylhydrazone) to induce mitochondrial damage, then add I-1˜I-44, UMI-77 1 hour later, set up 3 repetitions; under 37° C., 5% CO2 culture conditions, pictures were taken every few hours with biotek cytation 5, photographs were taken for 20 hours. Another group of human embryonic kidney transformed cells HEK293Tmtkeima cells was seeded at 1.5*10^5 cells/ml in 96-well black ELISA PLATE at 100 μl per well under the same conditions, 24 hours later 5 uM or 10 uM CCCP (Carbonyl cyanide 3-chlorophenylhydrazone) was first added to induce mitochondrial damage, after 1 hour then add I-1 to I-44, UMI-77 and set up 3 replicates. At 37° C., under 5% CO2 incubation conditions, pictures were taken every few hours with biotek cytation 5, photographs were taken for 20 hours, with the bright field as the focusing channel for both groups, and 9 images were taken per hole, and the images were processed using the instrument software.

Row | Compound | The ability of selection to induce autophagy in damaged mitochondria
1 | O=C(O)C[S+]([O-])c1cc(N(C2CC2)S(=O)(=O)c2ccc(Br)cc2)c2ccccc2c1O (stereo not shown) [Compound I-3] | ++ (moderate ability to selectively induce autophagy in damaged mitochondria (number of cells in which damaged mitophagy occurs/number of all cells in the range of 0.2 to 0.3))
2 | O=C(O)C[S+]([O-])c1cc(N(C2COC2)S(=O)(=O)c2ccc(Br)cc2)c2ccccc2c1O (stereo not shown) [Compound I-4] | + (weak ability to selectively induce autophagy in damaged mitochondria (number of cells in which damaged mitophagy occurs/number of all cells in the range of 0.1 to 0.2))
3 | NC(=O)C[S+]([O-])c1cc(NS(=O)(=O)c2ccc(Br)cc2)c2ccccc2c1O (stereo not shown) [Compound I-5] | + (weak ability to selectively induce autophagy in damaged mitochondria (number of cells in which damaged mitophagy occurs/number of all cells in the range of 0.1 to 0.2))
4 | NC(=S)C[S+]([O-])c1cc(NS(=O)(=O)c2ccc(Br)cc2)c2ccccc2c1O (stereo not shown) [Compound I-6] | + (weak ability to selectively induce autophagy in damaged mitochondria (number of cells in which damaged mitophagy occurs/number of all cells in the range of 0.1 to 0.2))
5 | O=S(=O)(Cc1nn[nH]n1)c1cc(NS(=O)(=O)c2ccc(Br)cc2)c2ccccc2c1O [Compound I-7-2] | + (weak ability to selectively induce autophagy in damaged mitochondria (number of cells in which damaged mitophagy occurs/number of all cells in the range of 0.1 to 0.2))
6 | O=S(=O)(Nc1cc([S+]([O-])Cc2nnc[nH]2)c(O)c2ccccc12)c1ccc(Br)cc1 (stereo not shown) [Compound I-8] | +++ (strong ability to selectively induce autophagy in damaged mitochondria (number of cells in which damaged mitophagy occurs/number of all cells >0.30))
7 | O=C(O)C[S+]([O-])c1cc(NS(=O)(=O)c2cccs2)c2ccccc2c1O (stereo not shown) [Compound I-13-1] | +++ (strong ability to selectively induce autophagy in damaged mitochondria (number of cells in which damaged mitophagy occurs/number of all cells >0.30))
8 | O=C(O)CS(=O)(=O)c1cc(NS(=O)(=O)c2cccs2)c2ccccc2c1O [Compound I-13-2] | ++ (moderate ability to selectively induce autophagy in damaged mitochondria (number of cells in which damaged mitophagy occurs/number of all cells in the range of 0.2 to 0.3))
9 | O=C(O)C[S+]([O-])c1cc(NS(=O)(=O)c2ccc(C(F)(F)F)cc2)c2ccccc2c1O (stereo not shown) [Compound I-14-1] | ++ (moderate ability to selectively induce autophagy in damaged mitochondria (number of cells in which damaged mitophagy occurs/number of all cells in the range of 0.2 to 0.3))
10 | O=C(O)CS(=O)(=O)c1cc(NS(=O)(=O)c2ccc(C(F)(F)F)cc2)c2ccccc2c1O [Compound I-14-2] | ++ (moderate ability to selectively induce autophagy in damaged mitochondria (number of cells in which damaged mitophagy occurs/number of all cells in the range of 0.2 to 0.3))
11 | COc1ccc(S(=O)(=O)Nc2cc([S+]([O-])CC(=O)O)c(O)c3ccccc23)cc1 (stereo not shown) [Compound I-15-1] | + (weak ability to selectively induce autophagy in damaged mitochondria (number of cells in which damaged mitophagy occurs/number of all cells in the range of 0.1 to 0.2))
12 | O=C(O)C[S+]([O-])c1cc(NS(=O)(=O)c2ccc(Oc3ccccc3)cc2)c2ccccc2c1O (stereo not shown) [Compound I-16-1] | ++ (moderate ability to selectively induce autophagy in damaged mitochondria (number of cells in which damaged mitophagy occurs/number of all cells in the range of 0.2 to 0.3))
13 | O=C(O)C[S+]([O-])c1cc(NS(=O)(=O)c2ccc(Cl)c(Cl)c2)c2ccccc2c1O (stereo not shown) [Compound I-17-1] | +++ (strong ability to selectively induce autophagy in damaged mitochondria (number of cells in which damaged mitophagy occurs/number of all cells >0.30))
14 | O=C(O)C[S+]([O-])c1cc(NS(=O)(=O)c2ccc(N3CCCC3)cc2)c2ccccc2c1O (stereo not shown) [Compound I-18-1] | + (weak ability to selectively induce autophagy in damaged mitochondria (number of cells in which damaged mitophagy occurs/number of all cells in the range of 0.1 to 0.2))
15 | O=C(O)C[S+]([O-])c1cc(NS(=O)(=O)c2cc3ccccc3s2)c2ccccc2c1O (stereo not shown) [Compound I-19-1] | ++ (moderate ability to selectively induce autophagy in damaged mitochondria (number of cells in which damaged mitophagy occurs/number of all cells in the range of 0.2 to 0.3))
16 | O=C(O)C[S+]([O-])c1cc(NS(=O)(=O)c2ccc(C3CC3)cc2)c2ccccc2c1O (stereo not shown) [Compound I-20-1] | ++ (moderate ability to selectively induce autophagy in damaged mitochondria (number of cells in which damaged mitophagy occurs/number of all cells in the range of 0.2 to 0.3))
17 | O=C(O)C[S+]([O-])c1cc(NS(=O)(=O)c2ccc(OC(F)(F)F)cc2)c2ccccc2c1O (stereo not shown) [Compound I-21-1] | +++ (strong ability to selectively induce autophagy in damaged mitochondria (number of cells in which damaged mitophagy occurs/number of all cells >0.30))
18 | O=C(O)C[S+]([O-])c1cc(NS(=O)(=O)c2ccc([N+](=O)[O-])cc2)c2ccccc2c1O (stereo not shown) [Compound I-22-1] | + (weak ability to selectively induce autophagy in damaged mitochondria (number of cells in which damaged mitophagy occurs/number of all cells in the range of 0.1 to 0.2))
19 | O=C(O)CS(=O)(=O)c1cc(NS(=O)(=O)c2cccc(-c3ccccc3)c2)c2ccccc2c1O [Compound I-23-2] | ++ (moderate ability to selectively induce autophagy in damaged mitochondria (number of cells in which damaged mitophagy occurs/number of all cells in the range of 0.2 to 0.3))
20 | O=C(O)C[S+]([O-])c1cc(NS(=O)(=O)c2cccc(F)c2)c2ccccc2c1O (stereo not shown) [Compound I-24-1] | + (weak ability to selectively induce autophagy in damaged mitochondria (number of cells in which damaged mitophagy occurs/number of all cells in the range of 0.1 to 0.2))
21 | CN=S(=O)(Nc1cc([S+]([O-])CC(=O)O)c(O)c2ccccc12)c1ccc(Br)cc1 (stereo not shown) [Compound I-25-1] | +++ (strong ability to selectively induce autophagy in damaged mitochondria (number of cells in which damaged mitophagy occurs/number of all cells >0.30))
22 | CN=S(=O)(c1ccc(Br)cc1)N(C)c1cc([S+]([O-])CC(=O)O)c(O)c2ccccc12 (stereo not shown) [Compound I-26] | ++ (moderate ability to selectively induce autophagy in damaged mitochondria (number of cells in which damaged mitophagy occurs/number of all cells in the range of 0.2 to 0.3))
23 | O=C(O)C[S+]([O-])c1cc(N2CCN=S2(=O)c2ccc(Br)cc2)c2ccccc2c1O (stereo not shown) [Compound I-27] | ++ (moderate ability to selectively induce autophagy in damaged mitochondria (number of cells in which damaged mitophagy occurs/number of all cells in the range of 0.2 to 0.3))
24 | O=C(O)C[S+]([O-])c1cc(N2CCCN=S2(=O)c2ccc(Br)cc2)c2ccccc2c1O (stereo not shown) [Compound I-28] | + (weak ability to selectively induce autophagy in damaged mitochondria (number of cells in which damaged mitophagy occurs/number of all cells in the range of 0.1 to 0.2))
25 | O=C(O)C[S+]([O-])c1cc(NS(=O)(=O)c2ccc(Br)cc2)c2cc(Br)ccc2c1O (stereo not shown) [Compound I-29] | +++ (strong ability to selectively induce autophagy in damaged mitochondria (number of cells in which damaged mitophagy occurs/number of all cells >0.30))
26 | N#Cc1ccc2c(O)c([S+]([O-])CC(=O)O)cc(NS(=O)(=O)c3ccc(Br)cc3)c2c1 (stereo not shown) [Compound I-31] | + (weak ability to selectively induce autophagy in damaged mitochondria (number of cells in which damaged mitophagy occurs/number of all cells in the range of 0.1 to 0.2))
27 | COP(=O)(Nc1cc([S+]([O-])CC(=O)O)c(O)c2ccccc12)c1ccc(Br)cc1 (stereo not shown) [Compound I-33] | ++ (moderate ability to selectively induce autophagy in damaged mitochondria (number of cells in which damaged mitophagy occurs/number of all cells in the range of 0.2 to 0.3))
28 | O=C(O)C[S+]([O-])c1cc(NC(=O)c2cccc(Br)c2)c2ccccc2c1O (stereo not shown) [Compound I-35-1] | + (weak ability to selectively induce autophagy in damaged mitochondria (number of cells in which damaged mitophagy occurs/number of all cells in the range of 0.1 to 0.2))
